Our source for the IC50 values is patent US12441727B2, “Tricyclic compounds as inhibitors of KRAS” (Incyte Corporation, priority 2021, dated 2025).

Test [1] concerns KRAS_G12C pERK. As to the kind of experiment: Cellular pERK HTRF assay (KRAS_G12C pERK assay). As to conditions: KRAS G12C cells, 4 hours incubation with compound, read-out: G12C_pERK. Format: cell-based, human. The method, then: MIA PaCa-2 (KRAS G12C; ATCC® CRL-1420), NCI-H358 (KRAS G12C; ATCC® CRL-5807), A427 (KRAS G12D; ATCC® HTB53), HPAFII (KRAS G12D; ATCC® CRL-1997), YAPC (KRAS G12V; DSMZ ACC382), SW480 (KRAS G12V; ATCC® CRL-228) and NCI-H838 (KRAS WT; ATCC® CRL-5844) cells are purchased from ATCC and maintained in RPMI 1640 media supplemented with 10% FBS (Gibco/Life Technologies). The cells are plated at 5000 cells per well (8 uL) into Greiner 384-well low volume, flat-bottom, and tissue culture treated white plates and incubated overnight at […], 5% CO2. The next morning, test compound stock solutions are diluted in media at 3× the final concentration and 4 uL are added to the cells, with a final concentration of 0.1% of DMSO. The cells are incubated with the test compounds for 4 hours (G12C and G12V) or 2 hrs (G12D) at 37° C., 5% CO2. Four uL of 4× lysis buffer with blocking reagent (Cisbio) are added to each well and plates are rotated gently (300 rpm) for 30 minutes at room temperature. Four uL per well of Cisbio anti Phospho-ERK 1/2 d2 is mixed with anti Phospho-ERK 1/2 Cryptate (1:1), and added to each well, incubated overnight in the dark at room temperature. Plates are read on the Pherastar plate reader at 665 nm and 620 nm wavelengths. Data are analyzed in Genedata Screener using SmartFit for IC50 values.
Background: Time-resolved FRET reads energy transfer from a long-lived donor to a nearby acceptor.

Test [2] deals with KRAS G12C (Homo sapiens, UniProt P01116, G12C). As to the kind of experiment: GDP-GTP exchange assay (KRAS_G12C exchange assay). As to conditions: bodipy-loaded KRAS G12C 2.5 nM, SOS1 150 nM, 2 hours pre-incubation with inhibitor; read-out: G12C_exchange. Format: biochemical. On the procedure: The inhibitor potency of the exemplified compounds was determined in a fluorescence based guanine nucleotide exchange assay, which measures the exchange of bodipy-GDP (fluorescently labeled GDP) for GppNHp (Non-hydrolyzable GTP analog) to generate the active state of KRAS in the presence of SOS1 (guanine nucleotide exchange factor). Inhibitors were serially diluted in DMSO and a volume of 0.1 μL was transferred to the wells of a black low volume 384-well plate. 5 μL/well volume of bodipy-loaded KRAS G12C diluted to 5 nM in assay buffer (25 mM Hepes pH 7.5, 50 mM NaCl, 10 mM MgCl2 and 0.01% Brij-35) was added to the plate and pre-incubated with inhibitor for 2 hours at ambient temperature. Appropriate controls (enzyme with no inhibitor or with a G12C inhibitor (AMG-510)) were included on the plate. The exchange was initiated by the addition of a 5 μL/well volume containing 1 mM GppNHp and 300 nM SOS1 in assay buffer. The 10 μL/well reaction concentration of the bodipy-loaded KRAS G12C, GppNHp, and SOS1 were 2.5 nM, 500 uM, and 150 nM, respectively. The reaction plates were incubated at ambient temperature for 2 hours, a time estimated for complete GDP-GTP exchange in the absence of inhibitor. For the KRAS G12D and G12V mutants, similar guanine nucleotide exchange assays were used with 2.5 nM as final concentration for the bodipy loaded KRAS proteins and with 4 hours and 3 hours incubation after adding GppNHp-SOS1 mixture for G12D and G12V respectively. A cyclic peptide described to selectively bind G12D mutant (Sakamoto et al., BBRC 484.3 (2017), 605-611) or internal compounds with confirmed binding were used as positive controls in the assay plates. Fluorescence intensities were measured on a PheraStar plate reader instrument (BMG Labtech) with excitation at 485 nm and emission at 520 nm.
KRAS G12C, sequence (P01116 1-188 isoform P01116-2 G12C): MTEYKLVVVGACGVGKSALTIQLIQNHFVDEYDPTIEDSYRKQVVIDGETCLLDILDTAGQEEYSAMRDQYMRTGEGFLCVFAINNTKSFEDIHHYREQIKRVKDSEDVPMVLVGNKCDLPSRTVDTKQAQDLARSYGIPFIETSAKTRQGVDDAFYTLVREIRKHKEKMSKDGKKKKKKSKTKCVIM
Either GraphPad prism or Genedata Screener SmartFit was used to analyze the data. The IC50 values were derived by fitting the data to a four parameter logistic equation producing a sigmoidal dose-response curve with a variable Hill coefficient.

Where two headings read alike, the source gives them in different places. A value given as a limit tells only on which side of the number the result lay.

Regarding `CN(C)C1(C)CN(c2nc3c(F)c(-c4ccc(F)c5cccnc45)c(C(F)(F)F)cc3c3c2nnn3[C@H]2CCN(C(=O)/C=C/CF)[C@H](CC#N)C2)C1` (single isomer, unassigned) [Example 1b], the IC50 was 50 to 100 nM in test [1] and at most 50 nM in test [2].

In the case of `COc1c(C)cccc1-c1c(C(F)(F)F)cc2c(nc(N3CC(C)(N(C)C)C3)c3nnn([C@H]4CCN(C(=O)/C=C/CF)[C@H](CC#N)C4)c32)c1F` (single isomer, unassigned) [Example 2b], the IC50 in test [1] is 50 to 100 nM; in test [2], at most 50 nM.

`COc1c(Cl)cccc1-c1c(C(F)(F)F)cc2c(nc(N3CC(C)(N(C)C)C3)c3nnn([C@H]4CCN(C(=O)/C=C/CF)[C@H](CC#N)C4)c32)c1F` (single isomer, unassigned) [Example 3b]: the IC50 in test [1] and in test [2] was at most 50 nM each time.

For the compound `C[C@H](Oc1nc2c(F)c(-c3ccc(F)c4cccnc34)c(C(F)(F)F)cc2c2c1nnn2[C@H]1CCN(C(=O)/C=C/CF)[C@H](CC#N)C1)[C@@H]1CCCN1C` (single isomer, unassigned) [Example 4b], the IC50 in test [1] and in test [2] was at most 50 nM throughout.

Take `C=CC(=O)N1CCC(n2nnc3c(O[C@@H](C)[C@@H]4CCCN4C)nc4c(F)c(-c5ccc(F)c6cccnc56)c(C(F)(F)F)cc4c32)CC1` (single isomer, unassigned) [Example 5b]: the IC50 in test [1] is 50 to 100 nM; in test [2] it was at most 50 nM.

On to `C=CC(=O)N1CCC(n2nnc3c(O[C@@H](C)[C@@H]4CCCN4C)nc4c(F)c(-c5cccc6cccc(C#N)c56)c(C)cc4c32)CC1` (single isomer, unassigned) [Example 11a], for which the IC50 was 100 to 1000 nM in test [1] (Homo sapiens, 4 h) and at most 50 nM in test [2].

Turning to `C=CC(=O)N1CC[C@H](n2nnc3c(O[C@@H](C)[C@@H]4CCCN4C)nc4c(F)c(-c5cccc6cccc(C#N)c56)c(C)cc4c32)C[C@H]1C` (single isomer, unassigned) [Example 14a], in test [2], the IC50 lay within 50 to 100 nM.

For the compound `C=C(F)C(=O)N1CC[C@H](n2nnc3c(N4CC(N(C)CC)C4)nc4c(F)c(-c5c(C)c(C)cc6[nH]ncc56)c(C)cc4c32)C[C@H]1CC#N` (single isomer, unassigned) [Example 15b], the IC50 in test [2] fell in the range of 100 to 1000 nM.

For the compound `Cc1cc2c(nc(O[C@@H](C)[C@@H]3CCCN3C)c3nnn(C4CCN(C(=O)/C=C/CF)CC4)c32)c(F)c1-c1cccc2cccc(C#N)c12` (single isomer, unassigned) [Example 16a], the IC50 in test [1] (Homo sapiens, 4 h) was 100 to 1000 nM; in test [2], at most 50 nM.

For `C=C(F)C(=O)N1CC[C@H](n2nnc3c(N4CC(C)(N(C)C)C4)nc4c(F)c(-c5cccc6cccc(C#N)c56)c(C)cc4c32)C[C@H]1CC#N` (single isomer, unassigned) [Example 17b], the IC50 in test [2] is 100 to 1000 nM.

As to `COC/C=C/C(=O)N1CC[C@H](n2nnc3c(N4CC(C)(N(C)C)C4)nc4c(Cl)c(-c5ccc(F)c6cccnc56)c(Cl)cc4c32)C[C@H]1CC#N` (single isomer, unassigned) [Example 18b], the IC50 in test [1] is 100 to 1000 nM; in test [2] it was at most 50 nM.

Take `CN(C)C1(C)CN(c2nc3c(Cl)c(-c4ccc(F)c5cccnc45)c(Cl)cc3c3c2nnn3[C@H]2CCN(C(=O)/C=C/CF)[C@H](CC#N)C2)C1` (single isomer, unassigned) [Example 19b]: the IC50 in test [1] and in test [2] was at most 50 nM each time.

Take `C=C(F)C(=O)N1CC[C@H](n2nnc3c(O[C@@H](C)[C@@H]4CCCN4C)nc4c(F)c(-c5c(C)ncc6ccccc56)c(C)cc4c32)C[C@H]1CC#N` (single isomer, unassigned) [Example 23a]: the IC50 in test [2] fell in the range of 50 to 100 nM.

With `COC/C=C/C(=O)N1CC[C@H](n2nnc3c(O[C@@H](C)[C@@H]4CCCN4C)nc4c(F)c(-c5c(C)ncc6ccccc56)c(C)cc4c32)C[C@H]1CC#N` (single isomer, unassigned) [Example 24a], the IC50 in test [1] (Homo sapiens, 4 h) was 50 to 100 nM; in test [2], at most 50 nM.

In the case of `C=C(F)C(=O)N1CC[C@H](n2nnc3c(O[C@@H](C)[C@@H]4CCCN4C)nc4c(F)c(-c5c(F)ccc6ccc(C)nc56)c(C)cc4c32)C[C@H]1CC#N` (single isomer, unassigned) [Example 25b], the IC50 in test [1] and in test [2] was at most 50 nM in each case.

For the compound `C=CC(=O)N1CC[C@H](n2nnc3c(O[C@@H](C)[C@@H]4CCCN4C)nc4c(F)c(-c5cccc6c5c(CC#N)nn6C)c(C)cc4c32)C[C@H]1C` (single isomer, unassigned) [Example 28a], the IC50 in test [2] is 100 to 1000 nM.

Consider `C=CC(=O)N1CC[C@H](n2nnc3c(O[C@@H](C)[C@@H]4CCCN4C)nc4c(F)c(-c5cccc6c5c(CC#N)cn6C)c(C)cc4c32)C[C@H]1C` (single isomer, unassigned) [Example 31a], for which the IC50 in test [2] was 100 to 1000 nM.

For the compound `C=CC(=O)N1CCC(n2nnc3c(O[C@@H](C)[C@@H]4CCCN4C)nc4c(F)c(-c5cccc6c5c(CC#N)cn6C)c(C)cc4c32)CC1` (single isomer, unassigned) [Example 32a], in test [2], the IC50 was in the range of 50 to 100 nM.

In the case of `C=C(F)C(=O)N1CC[C@H](n2nnc3c(N4CC(C)(N(C)CC)C4)nc4c(F)c(-c5c(C)c(C)cc6[nH]ncc56)c(Cl)cc4c32)C[C@H]1CC#N` (single isomer, unassigned) [Example 33b], in test [2], the IC50 was 100 to 1000 nM.

`COC/C=C/C(=O)N1CC[C@H](n2nnc3c(O[C@@H](C)[C@@H]4CCCN4C)nc4c(F)c(-c5c(F)cccc5OC)c(C)cc4c32)C[C@H]1CC#N` (single isomer, unassigned) [Example 34a]: the IC50 was at most 50 nM in test [1] (Homo sapiens, 4 h) and at most 50 nM in test [2].

On to `C=C(F)C(=O)N1CC[C@H](n2nnc3c(N4CC(C)(N(C)CC)C4)nc4c(F)c(-c5c(C)c(F)cc6[nH]ncc56)c(Cl)cc4c32)C[C@H]1CC#N` (single isomer, unassigned) [Example 35b], for which the IC50 in test [2] was in the range of 100 to 1000 nM.
